From patent publication US20200239530A1, “COMPOUNDS AND METHODS OF MODULATING PROTEIN DEGRADATION” (Vividion Therapeutics, Inc., priority 2017, published 2020) come the findings set out here.

Experiment [1] addresses T1, DDX60 Probable ATP-dependent RNA helicase DDX60 (Homo sapiens, UniProt Q8IY21).
T1 construct: 200 μL of lysate containing 5 mg/ml proteome was treated with 2 μL of 100× compound stock; endogenous in cells
The experiment is described as follows: Cysteine liganding, probe competition. Type of experiment: binding. The method, boiled down: (§1)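 Lysates from probe-sonicated cells in PBS (5 mg/ml proteome) were exposed to compound for 1 hr at 25° C, then labelled with desthiobiotin iodoacetamide probe (10 mM stock) for 1 hr at 25° C. Probe-tagged peptides were streptavidin-enriched after trypsin digestion.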

The target of experiment [2] is T2, POGZ Pogo transposable element with ZNF domain (Homo sapiens, UniProt Q7Z3K3).
T2 construct: Cells were resuspended in cold PBS on ice and sonicated with a probe sonicator to achieve lysis; endogenous in cells
T2 sequence (Q7Z3K3 1-1410): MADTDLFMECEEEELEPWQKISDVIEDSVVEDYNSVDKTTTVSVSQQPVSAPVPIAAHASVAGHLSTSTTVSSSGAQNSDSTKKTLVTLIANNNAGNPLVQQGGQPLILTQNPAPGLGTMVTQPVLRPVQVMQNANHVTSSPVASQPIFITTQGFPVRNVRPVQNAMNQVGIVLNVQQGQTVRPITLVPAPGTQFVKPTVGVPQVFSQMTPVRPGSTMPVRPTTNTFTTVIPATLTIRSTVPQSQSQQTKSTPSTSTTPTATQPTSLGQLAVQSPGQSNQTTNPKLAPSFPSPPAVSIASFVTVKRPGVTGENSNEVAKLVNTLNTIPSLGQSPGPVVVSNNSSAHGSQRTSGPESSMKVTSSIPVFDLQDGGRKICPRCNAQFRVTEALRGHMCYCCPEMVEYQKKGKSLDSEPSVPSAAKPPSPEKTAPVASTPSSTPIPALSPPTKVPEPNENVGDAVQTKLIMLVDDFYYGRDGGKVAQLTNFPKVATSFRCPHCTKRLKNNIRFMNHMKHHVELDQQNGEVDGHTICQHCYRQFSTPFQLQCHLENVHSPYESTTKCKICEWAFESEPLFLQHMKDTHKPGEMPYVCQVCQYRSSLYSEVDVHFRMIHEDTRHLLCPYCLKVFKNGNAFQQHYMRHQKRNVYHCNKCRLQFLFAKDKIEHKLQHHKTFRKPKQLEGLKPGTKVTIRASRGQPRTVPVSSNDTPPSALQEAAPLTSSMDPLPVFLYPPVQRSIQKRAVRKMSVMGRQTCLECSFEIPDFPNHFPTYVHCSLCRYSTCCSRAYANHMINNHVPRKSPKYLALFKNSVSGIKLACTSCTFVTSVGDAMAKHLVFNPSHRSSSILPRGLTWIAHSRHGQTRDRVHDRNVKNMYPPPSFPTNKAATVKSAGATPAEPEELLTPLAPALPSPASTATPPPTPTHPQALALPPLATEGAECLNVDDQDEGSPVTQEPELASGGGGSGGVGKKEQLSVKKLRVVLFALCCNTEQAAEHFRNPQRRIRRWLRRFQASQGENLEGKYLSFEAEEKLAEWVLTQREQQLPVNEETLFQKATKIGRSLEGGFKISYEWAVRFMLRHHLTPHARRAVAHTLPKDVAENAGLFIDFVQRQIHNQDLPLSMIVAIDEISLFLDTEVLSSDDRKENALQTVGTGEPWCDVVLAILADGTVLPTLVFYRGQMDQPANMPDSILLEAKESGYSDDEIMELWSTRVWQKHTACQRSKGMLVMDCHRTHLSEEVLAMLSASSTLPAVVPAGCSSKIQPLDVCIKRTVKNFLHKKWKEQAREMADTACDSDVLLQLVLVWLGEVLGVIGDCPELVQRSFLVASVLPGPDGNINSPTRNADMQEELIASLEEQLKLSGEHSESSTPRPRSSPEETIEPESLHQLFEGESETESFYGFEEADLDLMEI
Put plainly: Cysteine liganding, probe competition. In kind it is binding. The method, boiled down:
as §1

T1 sequence (Q8IY21 whole entry): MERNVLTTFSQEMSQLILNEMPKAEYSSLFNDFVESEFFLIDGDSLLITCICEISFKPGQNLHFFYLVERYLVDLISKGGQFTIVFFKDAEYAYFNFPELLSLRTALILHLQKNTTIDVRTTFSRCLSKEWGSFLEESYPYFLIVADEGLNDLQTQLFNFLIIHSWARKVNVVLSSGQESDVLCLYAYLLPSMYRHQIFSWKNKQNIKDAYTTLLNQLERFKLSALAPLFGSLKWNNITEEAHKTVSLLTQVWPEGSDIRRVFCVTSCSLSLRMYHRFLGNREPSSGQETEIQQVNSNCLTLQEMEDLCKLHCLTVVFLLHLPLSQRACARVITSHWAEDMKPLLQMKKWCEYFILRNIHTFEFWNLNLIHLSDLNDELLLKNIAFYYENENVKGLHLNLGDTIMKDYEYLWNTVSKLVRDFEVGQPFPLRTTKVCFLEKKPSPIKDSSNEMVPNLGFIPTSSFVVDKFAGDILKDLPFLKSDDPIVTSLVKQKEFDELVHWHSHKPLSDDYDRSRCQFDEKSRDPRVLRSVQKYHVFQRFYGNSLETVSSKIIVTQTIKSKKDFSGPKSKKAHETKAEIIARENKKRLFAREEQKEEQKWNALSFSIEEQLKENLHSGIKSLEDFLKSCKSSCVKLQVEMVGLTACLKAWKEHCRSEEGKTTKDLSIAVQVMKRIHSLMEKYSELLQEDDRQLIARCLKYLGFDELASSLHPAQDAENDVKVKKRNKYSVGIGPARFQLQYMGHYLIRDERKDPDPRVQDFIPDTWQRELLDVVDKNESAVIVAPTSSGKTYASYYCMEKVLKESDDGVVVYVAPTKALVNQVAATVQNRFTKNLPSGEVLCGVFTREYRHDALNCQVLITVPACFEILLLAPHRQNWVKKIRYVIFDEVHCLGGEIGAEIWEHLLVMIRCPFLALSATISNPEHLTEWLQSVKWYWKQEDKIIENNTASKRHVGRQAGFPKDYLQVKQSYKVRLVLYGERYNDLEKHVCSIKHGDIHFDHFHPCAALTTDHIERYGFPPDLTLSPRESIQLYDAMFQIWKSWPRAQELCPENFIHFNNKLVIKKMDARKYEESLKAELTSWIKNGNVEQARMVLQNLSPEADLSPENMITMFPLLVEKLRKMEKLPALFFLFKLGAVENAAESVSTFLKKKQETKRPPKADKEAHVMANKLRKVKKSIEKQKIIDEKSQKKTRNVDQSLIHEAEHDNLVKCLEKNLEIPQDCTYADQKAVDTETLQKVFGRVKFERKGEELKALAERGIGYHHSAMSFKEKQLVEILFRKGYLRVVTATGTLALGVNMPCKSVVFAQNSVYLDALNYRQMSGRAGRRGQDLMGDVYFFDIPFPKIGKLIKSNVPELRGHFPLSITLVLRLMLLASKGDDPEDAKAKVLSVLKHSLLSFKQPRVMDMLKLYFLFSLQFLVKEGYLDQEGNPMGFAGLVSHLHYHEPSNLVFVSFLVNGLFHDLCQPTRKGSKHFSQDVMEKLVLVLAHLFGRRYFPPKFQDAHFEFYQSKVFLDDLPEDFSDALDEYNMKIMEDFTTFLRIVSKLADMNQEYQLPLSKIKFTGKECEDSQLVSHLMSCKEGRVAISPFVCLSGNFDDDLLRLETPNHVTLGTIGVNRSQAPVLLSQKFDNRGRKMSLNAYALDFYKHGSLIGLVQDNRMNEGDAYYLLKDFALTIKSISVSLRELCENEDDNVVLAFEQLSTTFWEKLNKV

As for `O=C(CCl)Nc1cc(C(F)(F)F)cc(C(F)(F)F)c1` [KBO3], in experiment [1] (uniprot Q8IY21), the “100 Max” value stood at 29.56, the 100 ave was 19.7, the “500 Max” value stood at 73.07 and the 500 ave stood at 73.07. In experiment [2] (uniprot Q7Z3K3), the “100 Max” value is listed as 2.21, the 100 ave is on record as −8.9575, the “500 Max” value turned out to be 15.64 and the 500 ave is reported as 13.995.
Turning to `COc1ccc2c(c1)CCCN2C(=O)CCl` [KB02], the Liganded result in experiment [1] (DDX60 Res# 1051, uniprot Q8IY21) was “YES”; in experiment [2] (POGZ Res# 547, uniprot Q7Z3K3), “YES”.
